Reference: publication PMC9632963, “Preclinical characterization and phase I clinical trial of CT053PTSA targets MET, AXL, and VEGFR2 in patients with advanced solid tumors” (Frontiers in Immunology, 2022)

Tests used:
FLT3 [1] = biological target: T1, FLT3 (Homo sapiens, UniProt P36888); assay: Kinase inhibition assay (LANCE or HTRF); type: biochemical; conditions: ATP at Km
Description: (§4) The IC50 values were determined by measuring phosphorylation of peptide substrate poly at ATP concentrations at the Km.

EphA6 = EphA6 (Homo sapiens, UniProt Q9UF33); assay: Kinase inhibition assay (LANCE or HTRF); type: biochemical; conditions: ATP at Km
Description: as §4

EphA8 = EphA8 (Homo sapiens, UniProt P29322); assay: Kinase inhibition assay (LANCE or HTRF); type: biochemical; conditions: ATP at Km
Description: as §4

Tyro3 = Tyro3 (Homo sapiens, UniProt Q06418); assay: Kinase inhibition assay (LANCE or HTRF); type: biochemical; conditions: ATP at Km
Description: as §4

Yes = Yes (Homo sapiens, UniProt P07947); assay: Kinase inhibition assay (LANCE or HTRF); type: biochemical; conditions: ATP at Km
Description: as §4

FLT4 = FLT4 (Homo sapiens, UniProt P35916); assay: Kinase inhibition assay (LANCE or HTRF); type: biochemical; conditions: ATP at Km
Description: as §4

FRK = FRK (Homo sapiens, UniProt P42685); assay: Kinase inhibition assay (LANCE or HTRF); type: biochemical; conditions: ATP at Km
Description: as §4

Fes = Fes (Homo sapiens, UniProt P07332); assay: Kinase inhibition assay (LANCE or HTRF); type: biochemical; conditions: ATP at Km
Description: as §4

Fgr = Fgr (Homo sapiens, UniProt P09769); assay: Kinase inhibition assay (LANCE or HTRF); type: biochemical; conditions: ATP at Km
Description: as §4

FLT1 = FLT1 (Homo sapiens, UniProt P17948); assay: Kinase inhibition assay (LANCE or HTRF); type: biochemical; conditions: ATP at Km
Description: as §4

MNK2 = MNK2 (Homo sapiens, UniProt Q9HBH9); assay: Kinase inhibition assay (LANCE or HTRF); type: biochemical; conditions: ATP at Km
Description: as §4

PDGFRα = PDGFRα (Homo sapiens, UniProt P16234); assay: Kinase inhibition assay (LANCE or HTRF); type: biochemical; conditions: ATP at Km
Description: as §4

RON = RON (Homo sapiens, UniProt Q04912); assay: Kinase inhibition assay (LANCE or HTRF); type: biochemical; conditions: ATP at Km
Description: as §4

MLK = assay: Kinase inhibition assay (LANCE or HTRF); type: biochemical, human; conditions: ATP at Km
Description: as §4

SNU-5 = assay: Cell proliferation assay (CellTiter-Glo, 72 hours); type: cell-based; conditions: Homo sapiens, read-out: IC50 anti-proliferative
Description: (§5) Human gastric tumor cell lines with high MET expression levels, namely, the GTL-16, MKN45, SNU638, Hs746T, SNU-620, and SNU-5 cell lines, were used in the assay. […] Cell viability was measured after 72 hours using a CellTiter-Glo Luminescent Cell Viability Assay Kit (Promega, WI, USA) according to the manufacturer’s instructions.

SNU638 = assay: Cell proliferation assay (CellTiter-Glo, 72 hours); type: cell-based; conditions: Homo sapiens, SNU-638, read-out: IC50 anti-proliferative
Description: as §5

SNU620 = assay: Cell proliferation assay (CellTiter-Glo, 72 hours); type: cell-based; conditions: Homo sapiens, read-out: IC50 anti-proliferative
Description: as §5

SNU-484 = assay: Cell proliferation assay (CellTiter-Glo, 72 hours); type: cell-based; conditions: Homo sapiens, read-out: IC50 anti-proliferative
SNU-16 = assay: Cell proliferation assay (CellTiter-Glo, 72 hours); type: cell-based; conditions: Homo sapiens, read-out: IC50 anti-proliferative
Description: (§6) Human gastric tumor cell lines with high MET expression levels, namely, the GTL-16, MKN45, SNU638, Hs746T, SNU-620, and SNU-5 cell lines, were used in the assay. These cell lines were obtained from American Type Culture Collection (ATCC), Japanese Collection of Research Bioresources (JCRB), Shanghai Institutes of Biological Sciences, CAS (SIBS), Korean Cell Line Bank (KCLB) or National Institutes of Health (NIH). […] Cell viability was measured after 72 hours using a CellTiter-Glo Luminescent Cell Viability Assay Kit (Promega, WI, USA) according to the manufacturer’s instructions.

AGS = assay: Cell proliferation assay (CellTiter-Glo, 72 hours); type: cell-based; conditions: Homo sapiens, read-out: IC50 anti-proliferative
NCI-N87 = assay: Cell proliferation assay (CellTiter-Glo, 72 hours); type: cell-based; conditions: Homo sapiens, read-out: IC50 anti-proliferative
SNU-216 = assay: Cell proliferation assay (CellTiter-Glo, 72 hours); type: cell-based; conditions: Homo sapiens, read-out: IC50 anti-proliferative
Description: as §6

NUGC-4 = assay: Cell proliferation assay (CellTiter-Glo, 72 hours); type: cell-based; conditions: Homo sapiens, read-out: IC50 anti-proliferative
[2] = test system: gastric tumor cell lines with high MET mRNA levels; assay: cells; conditions: Homo sapiens, read-out: average IC50 value
Description: (§1) These cell lines were obtained from American Type Culture Collection (ATCC), Japanese Collection of Research Bioresources (JCRB), Shanghai Institutes of Biological Sciences, CAS (SIBS), Korean Cell Line Bank (KCLB) or National Institutes of Health (NIH). […] Cell viability was measured after 72 hours using a CellTiter-Glo Luminescent Cell Viability Assay Kit (Promega, WI, USA) according to the manufacturer’s instructions.
(§2) The MET mRNA expression level in each human gastric cell lines was evaluated with real-time PCR. Glyceraldehyde-3-phosphate dehydrogenase (GAPDH) was considered as the internal control. The amplification was performed in a 20 μl mixture containing 10 μl of TaqMan Universal PCR Master Mix (Invitrogen, CA, USA) with UNG, 1 μl of the MET (Hs01565584_m1) or GAPDH (Hs02786624_g1) TaqMan Gene Expression Assay (Thermo, CA, USA), and 5 μl of cDNA solution. Each sample was analyzed in triplicate on an Agilent Technologies Stratagenes Mx3005P (CA, USA). Relative MET mRNA expression is presented as the fold-change, which was calculated using the 2^ (-ΔΔCt) method.

[3] = test system: gastric tumor cell lines with low MET mRNA levels; assay: cells; conditions: Homo sapiens, read-out: average IC50 value
Description: as §1, §2

GA0046 PDX xenografts = assay: In vivo efficacy study, PDX model; parameters: species or system immunodeficient mice
Description: (§3) Human tumor xenografts were established in female BALB/cA nude mice (5-6 weeks old) by administering the SNU-5 and MKN-45 cells, which have high MET expression levels. For efficacy studies in patient-derived tumor xenograft (PDX) mouse models, MET-overexpressing GA0046 and GA3121 tumors (obtained from Crownbio, CA, USA) were established by directly implanting surgical tissues into immunodeficient mice. […] The subcutaneous tumor size and body weight were measured twice weekly. The tumor volumes were determined by measuring two perpendicular diameters with calipers and calculated as (length × width^2)/2.

GA3121 PDX xenografts = assay: In vivo efficacy study, PDX model; parameters: species or system immunodeficient mice; conditions: 20 mg/kg once per day oral gavage
Description: as §3

[4] = Body weight of tumor-bearing mice in efficacy studies; type: in vivo; conditions: all groups, 1-20 mg/kg
Description: as §3

[5] = biological target: KinomeScan panel of 95 kinase binding assays; assay: KinomeScan kinase binding assay, panel of 95 kinase assays; conditions: 10 μM single concentration
Description: KinomeScan kinase binding assays were performed as described in reports i.
%Ctrl Calculation: [test compound signal-positive control signalnegative control signal-positive control signal]?100
test compound = compound submitted by Calitor; negative control = DMSO (100%Ctrl); positive control = control compound (0%Ctrl).

AXL = AXL (Homo sapiens, UniProt P30530); assay: Kinase inhibition assay (LANCE or HTRF); type: biochemical; parameters: expressing full-length human AXL (AXL-MEFs); expressed in transfected cells; host or cells: mouse embryonic fibroblasts (MEFs); conditions: ATP at Km
Description: as §4

FLT3 [6] = biological target: T1, FLT3; assay: Cellular kinase phosphorylation assay (sandwich ELISA), FLT3-wt-MEFs, FLT3-ligand stimulated; type: cell-based; parameters: MEFs expressing full-length human FLT3 (FLT3-wt-MEFs); expressed in transfected cells; host or cells: mouse embryonic fibroblasts (MEFs); conditions: FLT3-ligand 50 ng/ml
Description: Phosphorylation of the receptors MET, AXL, VEGFR2, and FLT3 was assessed in the transgenic human MKN45 gastric tumor cell line overexpressing MET, mouse embryonic fibroblasts (MEFs) expressing full-length human AXL (AXL-MEFs), human umbilical vein endothelial cells (HUVECs) overexpressing VEGFR-2, and MEFs expressing full-length human FLT3 (FLT3-wt-MEFs), respectively. […] Then, HUVECs and FLT3-wt-MEFs were stimulated with the ligands VEGF-A (100 ng/ml, for 3 min) and FLT3-ligand (50 ng/ml, for 5 min). MKN45 (overexpressing MET) and AXL-MEFs cells had no stimulation. […] Raw data were converted into percent substrate phosphorylation relative to high controls, which were set to 100%.

T1 sequence (P36888 27-993): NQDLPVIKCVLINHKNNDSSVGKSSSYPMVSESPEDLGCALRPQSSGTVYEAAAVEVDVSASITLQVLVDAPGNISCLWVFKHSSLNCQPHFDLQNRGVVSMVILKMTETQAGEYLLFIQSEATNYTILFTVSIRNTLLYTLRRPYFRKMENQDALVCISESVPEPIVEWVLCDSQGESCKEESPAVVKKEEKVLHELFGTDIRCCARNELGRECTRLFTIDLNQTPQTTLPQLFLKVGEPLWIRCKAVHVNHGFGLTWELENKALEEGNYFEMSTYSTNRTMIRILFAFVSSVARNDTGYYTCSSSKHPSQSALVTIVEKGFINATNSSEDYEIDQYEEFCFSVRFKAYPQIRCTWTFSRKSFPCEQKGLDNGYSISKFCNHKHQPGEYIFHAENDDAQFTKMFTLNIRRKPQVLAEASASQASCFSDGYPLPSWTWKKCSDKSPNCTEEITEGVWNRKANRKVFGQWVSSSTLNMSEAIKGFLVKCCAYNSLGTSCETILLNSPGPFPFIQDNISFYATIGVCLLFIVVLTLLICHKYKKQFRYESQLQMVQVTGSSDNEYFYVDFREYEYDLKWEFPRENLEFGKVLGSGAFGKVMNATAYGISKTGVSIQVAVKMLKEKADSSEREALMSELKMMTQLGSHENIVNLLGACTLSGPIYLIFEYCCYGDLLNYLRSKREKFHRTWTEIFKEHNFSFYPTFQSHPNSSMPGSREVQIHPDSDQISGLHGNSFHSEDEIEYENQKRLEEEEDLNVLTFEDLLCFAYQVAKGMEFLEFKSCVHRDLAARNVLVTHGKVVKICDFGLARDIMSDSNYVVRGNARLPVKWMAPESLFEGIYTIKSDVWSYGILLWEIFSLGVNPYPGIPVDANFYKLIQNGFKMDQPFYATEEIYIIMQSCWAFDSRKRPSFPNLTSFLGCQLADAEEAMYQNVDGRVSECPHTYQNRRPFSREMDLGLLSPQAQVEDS
Chain of RON (Q04912 25-1400): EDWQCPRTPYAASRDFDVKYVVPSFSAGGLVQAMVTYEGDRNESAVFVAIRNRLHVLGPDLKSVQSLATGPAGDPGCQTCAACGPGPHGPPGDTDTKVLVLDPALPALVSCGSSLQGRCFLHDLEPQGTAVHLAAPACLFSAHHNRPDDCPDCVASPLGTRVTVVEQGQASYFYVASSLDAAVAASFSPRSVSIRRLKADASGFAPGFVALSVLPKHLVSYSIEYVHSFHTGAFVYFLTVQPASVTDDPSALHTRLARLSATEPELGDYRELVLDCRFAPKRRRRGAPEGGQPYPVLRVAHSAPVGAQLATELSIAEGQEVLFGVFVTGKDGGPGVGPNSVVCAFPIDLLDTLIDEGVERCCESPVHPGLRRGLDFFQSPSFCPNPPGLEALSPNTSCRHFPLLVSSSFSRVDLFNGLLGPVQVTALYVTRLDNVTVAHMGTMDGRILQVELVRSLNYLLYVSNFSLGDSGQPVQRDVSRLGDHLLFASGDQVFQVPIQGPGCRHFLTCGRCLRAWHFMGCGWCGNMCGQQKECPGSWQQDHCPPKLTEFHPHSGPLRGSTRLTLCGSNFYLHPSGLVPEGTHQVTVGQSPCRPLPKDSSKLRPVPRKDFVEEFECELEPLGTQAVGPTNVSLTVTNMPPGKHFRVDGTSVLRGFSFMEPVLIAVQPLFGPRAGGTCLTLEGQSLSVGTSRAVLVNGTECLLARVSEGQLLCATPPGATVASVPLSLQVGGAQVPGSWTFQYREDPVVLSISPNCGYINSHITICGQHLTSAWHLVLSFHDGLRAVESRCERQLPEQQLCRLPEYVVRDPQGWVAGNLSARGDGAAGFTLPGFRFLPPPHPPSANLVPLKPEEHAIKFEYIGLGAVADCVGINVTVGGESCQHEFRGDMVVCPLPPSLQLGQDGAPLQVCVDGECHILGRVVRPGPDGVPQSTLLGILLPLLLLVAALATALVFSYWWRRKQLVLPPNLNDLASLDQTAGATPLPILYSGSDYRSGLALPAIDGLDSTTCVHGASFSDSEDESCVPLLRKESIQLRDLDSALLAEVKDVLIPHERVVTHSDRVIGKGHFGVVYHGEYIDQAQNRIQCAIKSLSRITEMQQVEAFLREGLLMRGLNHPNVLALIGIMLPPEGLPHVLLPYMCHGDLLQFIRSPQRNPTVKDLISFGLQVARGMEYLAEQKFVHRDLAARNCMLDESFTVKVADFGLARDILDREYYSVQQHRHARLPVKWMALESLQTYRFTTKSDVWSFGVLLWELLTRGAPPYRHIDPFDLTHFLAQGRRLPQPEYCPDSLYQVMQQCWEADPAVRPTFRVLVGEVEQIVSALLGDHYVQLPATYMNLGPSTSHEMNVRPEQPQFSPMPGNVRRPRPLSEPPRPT
Chain of Fes (P07332 whole entry): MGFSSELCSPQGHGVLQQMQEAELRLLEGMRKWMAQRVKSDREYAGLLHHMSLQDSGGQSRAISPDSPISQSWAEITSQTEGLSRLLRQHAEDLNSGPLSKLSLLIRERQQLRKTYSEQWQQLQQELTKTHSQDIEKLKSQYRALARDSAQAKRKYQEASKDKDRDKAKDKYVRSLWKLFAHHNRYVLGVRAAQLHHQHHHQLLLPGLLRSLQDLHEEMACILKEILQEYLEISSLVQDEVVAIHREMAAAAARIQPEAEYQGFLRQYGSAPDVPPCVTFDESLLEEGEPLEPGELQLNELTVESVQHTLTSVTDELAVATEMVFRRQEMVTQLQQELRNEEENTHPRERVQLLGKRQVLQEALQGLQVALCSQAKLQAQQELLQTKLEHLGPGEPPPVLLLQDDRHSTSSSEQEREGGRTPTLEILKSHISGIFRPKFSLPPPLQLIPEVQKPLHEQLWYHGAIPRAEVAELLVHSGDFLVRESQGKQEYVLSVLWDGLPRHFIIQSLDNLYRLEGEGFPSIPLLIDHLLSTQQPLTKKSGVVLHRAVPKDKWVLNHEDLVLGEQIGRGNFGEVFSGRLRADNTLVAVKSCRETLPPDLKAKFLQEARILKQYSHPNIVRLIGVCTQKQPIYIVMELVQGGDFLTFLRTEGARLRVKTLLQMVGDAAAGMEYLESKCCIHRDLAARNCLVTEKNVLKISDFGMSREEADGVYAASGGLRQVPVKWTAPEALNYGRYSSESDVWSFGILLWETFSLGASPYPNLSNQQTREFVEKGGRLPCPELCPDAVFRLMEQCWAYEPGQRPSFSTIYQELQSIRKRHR
Chain of PDGFRα (P16234 24-1089): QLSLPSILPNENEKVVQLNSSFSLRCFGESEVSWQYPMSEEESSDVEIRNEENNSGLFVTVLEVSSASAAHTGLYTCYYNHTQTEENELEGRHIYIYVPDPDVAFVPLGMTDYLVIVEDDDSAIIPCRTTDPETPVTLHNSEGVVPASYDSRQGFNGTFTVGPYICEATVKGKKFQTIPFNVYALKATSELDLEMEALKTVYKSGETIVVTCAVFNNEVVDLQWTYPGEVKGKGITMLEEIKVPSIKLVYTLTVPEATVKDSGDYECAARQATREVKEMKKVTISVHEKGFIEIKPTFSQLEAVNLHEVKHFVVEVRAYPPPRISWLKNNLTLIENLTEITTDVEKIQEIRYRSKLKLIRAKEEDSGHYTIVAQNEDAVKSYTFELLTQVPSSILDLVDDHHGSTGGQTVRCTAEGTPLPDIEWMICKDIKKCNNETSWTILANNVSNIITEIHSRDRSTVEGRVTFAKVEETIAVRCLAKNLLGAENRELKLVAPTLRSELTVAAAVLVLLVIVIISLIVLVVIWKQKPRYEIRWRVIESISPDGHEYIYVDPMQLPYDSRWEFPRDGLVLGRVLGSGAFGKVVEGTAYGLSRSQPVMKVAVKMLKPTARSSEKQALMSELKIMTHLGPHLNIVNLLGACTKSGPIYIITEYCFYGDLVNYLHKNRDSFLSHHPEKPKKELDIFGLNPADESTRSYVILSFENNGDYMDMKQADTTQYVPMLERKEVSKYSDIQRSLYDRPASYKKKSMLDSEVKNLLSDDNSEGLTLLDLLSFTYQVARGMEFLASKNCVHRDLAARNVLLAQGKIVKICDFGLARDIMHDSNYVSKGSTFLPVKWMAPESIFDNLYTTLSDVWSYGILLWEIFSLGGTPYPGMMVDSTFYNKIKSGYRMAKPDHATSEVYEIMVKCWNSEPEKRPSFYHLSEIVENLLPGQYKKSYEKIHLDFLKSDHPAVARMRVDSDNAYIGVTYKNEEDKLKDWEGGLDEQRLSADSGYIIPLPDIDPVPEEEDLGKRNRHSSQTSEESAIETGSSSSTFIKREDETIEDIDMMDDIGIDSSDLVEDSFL
Chain of Tyro3 (Q06418 41-890): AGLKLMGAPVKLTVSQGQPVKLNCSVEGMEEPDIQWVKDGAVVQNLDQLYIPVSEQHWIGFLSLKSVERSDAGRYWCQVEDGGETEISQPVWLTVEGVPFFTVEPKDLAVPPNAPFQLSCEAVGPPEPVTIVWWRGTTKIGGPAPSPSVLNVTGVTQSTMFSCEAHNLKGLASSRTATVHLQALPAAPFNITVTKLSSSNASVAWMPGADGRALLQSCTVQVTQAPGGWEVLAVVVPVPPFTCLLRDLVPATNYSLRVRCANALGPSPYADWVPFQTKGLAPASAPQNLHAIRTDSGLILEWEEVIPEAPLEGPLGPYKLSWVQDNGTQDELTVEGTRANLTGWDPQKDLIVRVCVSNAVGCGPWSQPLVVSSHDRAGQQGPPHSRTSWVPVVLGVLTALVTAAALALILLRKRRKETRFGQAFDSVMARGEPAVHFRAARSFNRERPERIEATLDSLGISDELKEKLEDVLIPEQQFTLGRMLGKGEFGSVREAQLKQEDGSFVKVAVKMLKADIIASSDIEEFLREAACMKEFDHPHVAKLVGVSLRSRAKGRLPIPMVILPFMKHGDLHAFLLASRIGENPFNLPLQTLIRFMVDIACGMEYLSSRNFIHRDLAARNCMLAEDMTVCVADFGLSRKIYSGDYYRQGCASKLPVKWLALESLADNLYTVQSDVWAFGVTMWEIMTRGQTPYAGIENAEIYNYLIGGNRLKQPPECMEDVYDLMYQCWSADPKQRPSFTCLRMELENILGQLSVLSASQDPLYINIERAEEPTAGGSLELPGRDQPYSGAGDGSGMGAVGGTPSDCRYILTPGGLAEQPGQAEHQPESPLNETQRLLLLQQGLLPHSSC

SMILES: Cc1c(C(=O)Nc2ccc(Oc3ccnc4cc(OCC(C)(C)O)ccc34)c(F)c2)c(=O)n(-c2ccccc2)n1C [CT053]
- IC50 (FLT3 [1]): 8.6 nM
- IC50 (EphA6): 81 nM
- IC50 (EphA8): 620 nM
- IC50 (Tyro3): 150 nM
- IC50 (Yes): 110 nM
- IC50 (FLT4): 46 nM
- IC50 (FRK): 520 nM
- IC50 (Fes): 48 nM
- IC50 (Fgr): 77 nM
- IC50 (FLT1): 6100 nM
- IC50 (MNK2): 55 nM
- IC50 (PDGFRα): 390 nM
- IC50 (RON): 160 nM
- IC50 (MLK): 160 nM
- IC50 (SNU-5): 60 nM
- IC50 (SNU638): 90 nM
- IC50 (SNU620): 60 nM
- IC50 (SNU-484): 8500 nM
- IC50 (SNU-16): > 10000 nM
- IC50 (AGS): > 10000 nM
- IC50 (NCI-N87): > 10000 nM
- IC50 (SNU-216): > 10000 nM
- IC50 (NUGC-4): > 10000 nM
- IC50 [2]: 95 nM
- IC50 [3]: > 10000 nM
- TGI (GA0046 PDX xenografts; 3 mg/kg once per day oral gavage): 18%
- TGI (GA0046 PDX xenografts; 10 mg/kg once per day oral gavage): 57%
- TGI (GA0046 PDX xenografts; 20 mg/kg once per day oral gavage): 75%
- TGI (GA3121 PDX xenografts): 172%
- change in body weight [4]: no significant change in body weight
- kinase interaction pattern [5]: highly specific
- IC50 (AXL): 3.4 nM
- IC50 (FLT3 [6]): 1.5 nM
